Measured values: US20230172894A1, “COMBINATION TREATMENT FOR FUMARATE-RELATED DISEASES” (IMCYSE SA, priority 2020, published 2023)
Counter-ions that a name gives are not always drawn. Like-named read-outs stand apart in the source and are kept apart here.

What was measured:
[1] = test system: experimental auto-immune encephalomyelitis (EAE) development in mice; conditions: Example 3; for mice died in group: 16 mice per group
Text: Example 3: Effect of the therapeutic administration of an immunogenic peptide comprising a MOG35-55 MHCII T cell epitope linked to a KCRC (SEQ ID NO: 65) or KCRPYC (SEQ ID NO: 84) oxidoreductase motif in combination with dimethyl fumarate (BG-12, […]™) on experimental auto-immune encephalomyelitis (EAE) development in mice.
The study used a total of 128 female C57BL/6 mice (Taconic Biosciences, 9 weeks old on Day 0). Mice were acclimated for 7 days prior to the first injection. Mice were assigned to groups in a balanced manner to achieve similar average weight across the groups at the start of the study.
Treatment 1 was administered once on each of the days indicated in Table 4, s.c., at a volume of 0.05 mL/site, each mouse receiving injection at two sites, for a total of 0.1 mL/mouse/dosing day. IMCY-0189 (CXXC oxidoreductase motif, IMCY-0453 (CXC oxidoreductase motif) or IMCY-0455 (CXXXC oxidoreductase motif) peptide total dose was 30 μg per administration.
(§1) BG-12 was dosed at 100 mg/kg.
(§2) All dosing were done at the same time (+/−1 hour) each dosing day. For the BID groups there were no less than 10 and no more than 14 hours between doses.
(§3) (SEQ ID NO: 266), comprising an oxidoreductase motif KCRC (SEQ ID NO: 65), a linker GW, a murine Myelin Oligodendrocyte Glycoprotein (MOG35-55) MHCII T cell epitope […] (SEQ ID NO: 169) and a flanking sequence HLYR (SEQ ID NO: 186) (Smart Bioscience) was solubilized immediately before use. Lyophilized IMCY-0453 was thawed at room temperature for 10 minutes, resuspended in Na Acetate buffer 50 mM NaCl 0.9% pH 5.4 and incubated at room temperature for 10 minutes. Reconstituted peptide was then mixed with Imject™ Alum Adjuvant before injection.
as §3, with “268),” for “266),”, “KCRPYC” for “KCRC”, “84),” for “65),”, “IMCY-0455” for “IMCY-0453”
(§4) Treatment 2 was prepared as described in example 2.
EAE induction, scoring and statistical analysis were performed as described in example
(§5) EAE development was evaluated by comparing clinical EAE readouts for all groups to the negative control (Saline/Vehicle) group.

[2] = test system: experimental auto-immune encephalomyelitis (EAE) development in mice; conditions: Example 4; for mice died in group: 16 mice per group; for disease onset: peptide 30 μg/Alum s.c. days 4, 9, 14, 19, BG-12 100 mg/kg p.o. BID days 0 to 27; for disease onset / AUC (area under the curve) of EAE scores / MMS (mean maximal score) / end score (clinical EAE score 0-5): vs negative control, combinations also vs peptides only or BG-12 only
Text: Example 4: Effect of the therapeutic administration of an immunogenic peptide comprising a human MOG201-212 MHCII T cell epitope linked to a KHCPYC oxidoreductase motif in combination with dimethyl fumarate (BG-12, […]™) on experimental auto-immune encephalomyelitis (EAE) development in mice.
The study used a total of 96 female C57BL/6 mice (Taconic Biosciences, 9 weeks old on Day 0). Mice were acclimated for 7 days prior to the first injection. Mice were assigned to groups in a balanced manner to achieve similar average weight across the groups at the start of the study.
Treatment 1 was administered once on each of the days indicated in Table 5, s.c., at a volume of 0.05 mL/site, each mouse receiving injection at two sites, for a total of 0.1 mL/mouse/dosing day. IMCY-0189 or P4 peptide total dose was 30 μg per administration.
as §1, §2
Lyophilized immunogenic peptide P4 with the sequence […] (SEQ ID NO: 176), comprising an oxidoreductase motif KHCPYC (SEQ ID NO: 77), a linker VRY, a human Myelin Oligodendrocyte Glycoprotein (MOG201-212) MHCII T cell epitope […] (SEQ ID NO: 165) and a flanking sequence TLFKK (SEQ ID NO: 267) (Smart Bioscience) was solubilized immediately before use. Lyophilized P4 was thawed at room temperature for 10 minutes, resuspended in Na Acetate buffer 50 mM NaCl 0.9% pH 5.4 and incubated at room temperature for 10 minutes. Reconstituted peptide was then mixed with Imject™ Alum Adjuvant before injection.
as §4
EAE induction, scoring and statistical analysis were performed as described in example 2.
as §5

[3] = test system: experimental auto-immune encephalomyelitis (EAE) development in mice; assay: Example 1: spinal cord histology (H&E inflammatory foci, anti-MBP demyelination score) in EAE mice; format: in vivo, female C57BL/6 mice; conditions: vs negative control, combination also vs each single treatment
Protocol: At the end of the study, all mice were euthanized, and spines were collected and placed in 10% buffered formalin for histological analysis.
For each spine, one H&E stained slide and one anti-MBP stained slide were prepared and analyzed. Each slide contained a section with samples from lumbar, thoracic and cervical of spinal cord (3 samples). All analysis was performed by a pathologist blinded to the experimental groups and all clinical readouts.
Inflammatory foci of approximately 20 cells were counted in each H&E stained section. When inflammatory infiltrates consisted of more than 20 cells, an estimate was made of how many foci of 20 cells were present.
Demyelination was scored in each anti-MBP (using immunohistochemistry) stained section. In anti-MBP sections, demyelination is observed as conspicuous unstained areas in white matter tracts and is associated with presence of large vacuoles. The demyelination score represents an estimate of demyelinated area for each section as follows: […]

In the case of `COC(=O)/C=C/C(=O)OC` [BG-12, dimethyl fumarate, reference compound], the “mice died in group” value [1] was “No mice died”, the disease onset ([1]; peptide 30 μg/Alum s.c. days 4, 9, 14, 19, BG-12 100 mg/kg p.o. BID days 0 to 27, vs negative control) was “postponed disease onset” and the “AUC (area under the curve) of EAE scores” value ([1]; vs negative control) was “statistically significant reduced”. The “MMS (mean maximal score)” value ([1]; vs negative control) was “statistically significant reduced”, the “end score (clinical EAE score 0-5)” value ([1]; vs negative control) was “reduced end score” and the “mice died in group” value [2] was “No mice died”. The disease onset [2] was “postponed disease onset”, the “AUC (area under the curve) of EAE scores” value [2] was “statistically significant reduced” and the “MMS (mean maximal score)” value [2] was “statistically significant reduced”. For the same compound, the “end score (clinical EAE score 0-5)” value [2] was “reduced end score” and the “level of inflammation (inflammatory foci in H&E stained spinal cord sections)” value [3] was “reduced level of inflammation, although not statistically significant”.
In the case of HCPYCGWYRSPFSRVVHLYR [IMCY-0189], the “mice died in group” value [1] was “No mice died”, the “mice died in group” value [2] was “No mice died” and the disease onset [2] was “postponed disease onset”. The “AUC (area under the curve) of EAE scores” value [2] was “statistically significant reduced”, the “MMS (mean maximal score)” value [2] was “statistically significant reduced” and the “end score (clinical EAE score 0-5)” value [2] was “reduced end score”. For the same compound, the “level of demyelination (anti-MBP stained sections, score 0-5)” value [3] was “reduced level of both inflammation and demyelination, although not statistically significant” and the “level of inflammation (inflammatory foci in H&E stained spinal cord sections)” value [3] was “reduced level of both inflammation and demyelination, although not statistically significant”.
